Experimental data as given in US11981661B2, “Heterocyclic compounds” (Hoffmann-La Roche Inc., priority 2020, dated 2024).

target: T1, MAGL (Homo sapiens, UniProt Q99685); experiment: 2-AG assay (MAGL inhibitory activity, hydrolysis of 2-arachidonoylglycerol followed by mass spectrometry); format: biochemical; details: 50 pM MAGL, 8 μM 2-arachidonoylglycerol, 15 min preincubation, 30 min incubation at RT, concentration range 12.5 μM to 0.8 pM
T1 sequence (Q99685 1-303): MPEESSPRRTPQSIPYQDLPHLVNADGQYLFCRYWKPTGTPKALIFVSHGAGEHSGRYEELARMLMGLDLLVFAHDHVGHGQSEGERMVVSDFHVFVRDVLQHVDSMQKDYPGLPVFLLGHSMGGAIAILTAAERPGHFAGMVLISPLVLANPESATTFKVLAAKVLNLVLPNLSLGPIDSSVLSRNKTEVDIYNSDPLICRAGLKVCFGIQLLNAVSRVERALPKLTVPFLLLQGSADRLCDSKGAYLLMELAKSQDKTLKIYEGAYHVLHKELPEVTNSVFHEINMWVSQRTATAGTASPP
Summary of the method: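 50 pM MAGL preincubated 15 min at RT with compound (12.5 μM to 0.8 pM) in 50 mM TRIS, 1 mM EDTA, 0.01% Tween, then 8 μM 2-arachidonoylglycerol for 30 min at RT. Arachidonic acid measured by RapidFire SPE–triple quadrupole MS in negative mode, normalised to d8-arachidonic acid.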

In order of falling IC50:
1. O=C(CCCc1cnn[nH]1)N1CC2(CC(Oc3cncc(C(F)(F)F)n3)C2)C1 [Example 43, 4-(1H-Triazol-5-yl)-1-[6-[6-(trifluoromethyl)pyrazin-2-yl]oxy-2-azaspiro[3.3]heptan-2-yl]butan-1-one]  6950 nM
2. O=C(CCc1cnn[nH]1)N1CC(OCc2ccc(C(F)(F)F)cc2F)C1 [Example 36, 1-(3-((2-Fluoro-4-(trifluoromethyl)benzyl)oxy)azetidin-1-yl)-3-(1H-1,2,3-triazol-5-yl)propan-1-one]  4030 nM
3. CC(C)(C)CS(=O)(=O)N1CC2(CN(C(=O)CC[C@@H]3COC(=O)N3)C2)C1 [Example 98, (4R)-4-[3-[2-(2,2-Dimethylpropyl-sulfonyl)-2,6-diazaspiro[3.3]heptan-6-yl]-3-oxo-propyl]oxazolidin-2-one]  3370 nM
4. CC1(CCC(=O)N2CC(c3ccc(Oc4cccc(Cl)c4)nc3)C2)CCC(=O)N1 (single isomer, unassigned) [Example 18, (+)- or (−)-5-[3-[3-[6-(3-Chlorophenoxy)-3-pyridyl]azetidin-1-yl]-3-oxo-propyl]-5-methyl-pyrrolidin-2-one]  2670 nM
5. O=C1N[C@@H](CCC(=O)N2CC(OCc3ccc(C(F)(F)F)cc3F)C2)CO1 [Example 19, (4S)-4-[3-[3-[[2-Fluoro-4-(trifluoromethyl)phenyl]methoxy]azetidin-1-yl]-3-oxo-propyl]oxazolidin-2-one]  1550 nM
6. CS(=O)(=O)c1ccc(CN2CCC3(CC2)CN(C(=O)CC[C@@H]2COC(=O)N2)C3)cc1 [Example 192, (4R)-4-[3-[7-[(4-Methyl-sulfonylphenyl)methyl]-2,7-diazaspiro[3.5]nonan-2-yl]-3-oxo-propyl] oxazolidin-2-one]  1220 nM
7. CS(=O)(=O)c1cc(Cl)ccc1-c1ccc(C2CN(C(=O)CCC3CNC(=O)N3)C2)cc1 (single isomer, unassigned) [Example 218, (+)- or (−)-4-[3-[3-[4-(4-Chloro-2-methylsulfonyl-phenyl)phenyl]azetidin-1-yl]-3-oxo-propyl]imidazolidin-2-one]  1210 nM
8. CC(C)(C)S(=O)(=O)c1ccc(C2CN(C(=O)CC[C@@H]3COC(=O)N3)C2)cn1 [Example 111, (4R)-4-[3-[3-(6-tert-Butylsulfonyl-3-pyridyl)azetidin-1-yl]-3-oxo-propyl]oxazolidin-2-one]  1170 nM
9. O=C1N[C@H](CCC(=O)N2CC3(C2)CN(S(=O)(=O)c2cccc(OC(F)(F)F)c2)C3)CO1 [Example 149, (4R)-4-[3-Oxo-3-[2-[3-(trifluoro-methoxy)phenyl]sulfonyl-2,6-diazaspiro[3.3]heptan-6-yl]propyl]oxazolidin-2-one]  976 nM
10. O=C1N[C@H](CCC(=O)N2CC(c3noc(C45CC(C(F)(F)F)(C4)C5)n3)C2)CO1 [Example 169, (4R)-4-[3-Oxo-3-[3-[5-[3-(trifluoromethyl)-1-bicyclo[1.1.1]pentanyl]-1,2,4-oxadiazol-3-yl]azetidin-1-yl]propyl] oxazolidin-2-one]  854 nM
11. O=C1N[C@H](CCC(=O)N2CC(c3ccc(N4CC5(CCCO5)C4)nc3)C2)CO1 [Example 172, (4R)-4-[3-[3-[6-(5-Oxa-2-azaspiro[3.4]octan-2-yl)-3-pyridyl]azetidin-1-yl]-3-oxo-propyl]oxazolidin-2-one]  827 nM
12. O=C1CCC(CCC(=O)N2CC(c3ccc(C4(C(F)(F)F)CC4)cc3)C2)N1 (single isomer, unassigned; (-)) [Example 5, (−)-5-[3-Oxo-3-[3-[4-[1-(trifluoromethyl)cyclopropyl]phenyl]azetidin-1-yl]propyl]pyrrolidin-2-one]  627 nM
13. O=C1N[C@H](CCC(=O)N2CC(c3cnc(C4(C(F)(F)F)CC4)nc3)C2)CO1 [Example 101, (4R)-4-[3-Oxo-3-(3-[2-[1-(trifluoro-methyl)cyclopropyl]pyrimidin-5-yl]azetidin-1-yl]propyl]oxazolidin-2-one]  481 nM
14. O=C1N[C@H](CCC(=O)N2CC(c3ccc(C4(C(F)(F)F)CC4)nc3)C2)CO1 [Example 102, (4R)-4-[3-Oxo-3-[3-[6-[1-(trifluoro-methyl)cyclopropyl]-3-pyridyl]azetidin-1-yl]propyl]oxazolidin-2-one]  420 nM
15. CC(C)(C)c1ccc(C2CN(C(=O)CC[C@@H]3COC(=O)N3)C2)cn1 [Example 91, (4R)-4-[3-[3-(6-tert-Butyl-3-pyridyl)azetidin-1-yl]-3-oxo-propyl]oxazolidin-2-one]  357 nM
16. CC(C)(O)C1CN(c2ccc(C3CN(C(=O)CC[C@@H]4COC(=O)N4)C3)cn2)C1 [Example 170, (4R)-4-[3-[3-[6-[3-(1-Hydroxy-1-methyl-ethyl)azetidin-1-yl]-3-pyridyl]azetidin-1-yl]-3-oxo-propyl]oxazolidin-2-one]  329 nM
17. CS(=O)(=O)c1ccc(C(c2ccccc2)C2CCN(C(=O)CC[C@@H]3COC(=O)N3)CC2)cc1 (single isomer, unassigned) [Example 84, (−)- or (+)-(−)-(4R)-4-[3-[4-[(4-Methyl-sulfonylphenyl)-phenyl-methyl]-1-piperidyl]-3-oxo-propyl]oxazolidin-2-one]  294 nM
18. O=C1N[C@H](CCC(=O)N2CC(c3ccc(N4CC(O)(C(F)(F)F)C4)nc3)C2)CO1 [Example 144, (4R)-4-[3-[3-[6-[3-Hydroxy-3-(trifluoro-methyl)azetidin-1-yl]-3-pyridyl]azetidin-1-yl]-3-oxo-propyl]oxazolidin-2-one]  172 nM
19. O=C1CC[C@@H](COC(=O)N2CC(OCc3ccc(C(F)(F)F)cc3F)C2)N1 [Example 52, [(2S)-5-Oxopyrrolidin-2-yl]methyl 3-[[2-fluoro-4-(trifluoromethyl)phenyl]methoxy]azetidine-1-carboxylate]  167 nM
20. O=C1N[C@H](CCC(=O)N2CC(c3ccc(N4CC5(C4)CC(F)(F)C5)nc3)C2)CO1 [Example 141, (4R)-4-[3-[3-[6-(6,6-Difluoro-2-azaspiro[3.3]heptan-2-yl)-3-pyridyl]azetidin-1-yl]-3-oxo-propyl]oxazolidin-2-one]  78 nM
21. CS(=O)(=O)c1cc(Cl)ccc1-c1ccc(C2CN(C(=O)CCC3CNC(=O)N3)C2)cc1 (centres unmarked) [Example 216, 4-[3-[3-[4-(4-Chloro-2-methylsulfonyl-phenyl)phenyl]azetidin-1-yl]-3-oxo-propyl]imidazolidin-2-one]  68 nM
22. O=C1N[C@H](CCC(=O)N2CC(c3ccc(N4CCC(C(F)(F)F)C4)cn3)C2)CO1 (stereo partly drawn) [Example 103, (4R)-4-[3-Oxo-3-[3-[5-[3-(trifluoro-methyl)pyrrolidin-1-yl]-2-pyridyl]azetidin-1-yl]propyl]oxazolidin-2-one]  54 nM
23. O=C1N[C@H](CCC(=O)N2CC3(CCC(Cc4ccc(OC(F)F)nc4)CC3)C2)CO1 [Example 191, (4R)-4-[3-[7-[[6-(Difluoro-methoxy)-3-pyridyl]methyl]-2-azaspiro[3.5]nonan-2-yl]-3-oxo-propyl] oxazolidin-2-one]  37 nM
24. O=C1N[C@H](COC(=O)N2CC(c3ccc(N4CCC(C(F)(F)F)C4)nc3)C2)CO1 (stereo partly drawn) [Example 62, [(4S)-2-Oxooxazolidin-4-yl]methyl 3-[6-[3-(trifluoromethyl)pyrrolidin-1-yl]-3-pyridyl]azetidine-1-carboxylate]  26 nM
25. O=C1N[C@H](CCC(=O)N2CC(c3ccc(N4CCC(O)(C(F)(F)F)C4)nc3)C2)CO1 (stereo partly drawn) [Example 207, (+)- or (−)-(4R)-4-[3-[3-[6-[3-Hydroxy-3-(trifluoromethyl)pyrrolidin-1-yl]-3-pyridyl]azetidin-1-yl]-3-oxo-propyl]oxazolidin-2-one]  17 nM
26. O=C1N[C@H](CCC(=O)N2CC(c3ccc(N4CCC(C(F)(F)F)C4)nc3)C2)CO1 (single isomer, unassigned) [Example 206]  16 nM
27. O=C1N[C@H](CCC(=O)N2CC(c3ccc(C4CC5(CCC5)C4)nc3)C2)CO1 [Example 163, (4R)-4-[3-Oxo-3-[3-(6-spiro[3.3]heptan-2-yl-3-pyridyl)azetidin-1-yl]propyl] oxazolidin-2-one]  9 nM
28. CS(=O)(=O)c1ccc(-c2ccc(C3CN(C(=O)CC[C@@H]4COC(=O)N4)C3)nc2)c(Cl)c1 [Example 108, (4R)-4-[3-[3-[5-(2-Chloro-4-methylsulfonyl-phenyl)-2-pyridyl]azetidin-1-yl]-3-oxo-propyl]oxazolidin-2-one]  7 nM
29. O=C1N[C@H](COC(=O)N2CC(c3ccc(Oc4ccc(F)cc4)cc3)C2)CO1 [Example 58, [(4S)-2-Oxooxazolidin-4-yl]methyl 3-[4-(4-fluorophenoxy)phenyl]azetidine-1-carboxylate]  4 nM
30. COCCN(c1ccc(C2CN(C(=O)CC[C@@H]3COC(=O)N3)C2)cc1)c1cccnc1 [Example 96, (4R)-4-[3-[3-[4-[2-Methoxyethyl(3-pyridyl)amino]phenyl]azetidin-1-yl]-3-oxo-propyl]oxazolidin-2-one]  2 nM
31. O=C1N[C@H](CCC(=O)N2CC(c3ccc(C4(C(F)(F)F)CC4)cc3)C2)CO1 [Example 22, (4R)-4-[3-Oxo-3-[3-[4-[1-(trifluoromethyl)cyclo-propyl]phenyl]azetidin-1-yl]propyl]oxazolidin-2-one]  1 nM
32. O=C1N[C@H](CCC(=O)N2CC(c3ccc(N(c4ccccc4)c4ccccc4)cc3)C2)CO1 [Example 90, (4R)-4-[3-Oxo-3-[3-[4-(N-phenylanilino)phenyl]azetidin-1-yl]propyl] oxazolidin-2-one]  0.02 nM
